Results: patent US20250288587A1, “Methods of Treating Fibrosis” (Athira Pharma, Inc., priority 2022, published 2025)
Where a SMILES comes first, the peptide text is derived from it. [ ]: non-standard residue; d: D form. The star is where a group is joined. Hexanoyl = CCCCCC(=O)*; Ahx = NCCCCCC(=O)O

Experiments:
[1] = tested on: THP-1-differentiated macrophages; test: Pro-inflammatory cytokine expression in LPS-challenged THP-1-differentiated macrophages; type: cell-based, human; set-up: key to IL-6, significant reduction in culture supernatant vs LPS treatment / TNF-α, significant reduction in culture supernatant vs LPS treatment / IL-1β, significant reduction in culture supernatant vs LPS treatment: “NS” indicates a non-significant reduction in the indicated cytokine; “+” indicates a p value <0.05 in Tukey post test; “++” indicates a p value <0.01 in Tukey post test; settings: for IL-1β, significant reduction in culture supernatant vs LPS treatment / IL-6, significant reduction in culture supernatant vs LPS treatment / TNF-α, significant reduction in culture supernatant vs LPS treatment: 20 min pre-treatment, 24 hrs LPS
Experimental: Differentiation with PMA causes THP-1 monocyte cells to acquire functional and morphological resemblance to macrophages. LPS interacts with THP-1 differentiated macrophage through the toll-like receptor 4, triggering the inflammatory response and stimulating pro-inflammatory cytokine release and eventually leading to cellular death. Compounds were tested to determine their anti-inflammatory effects on LPS-challenged macrophage cultures. THP-1-differentiated macrophages were treated with test compounds for 20 minutes, followed by 24 hrs of LPS challenge. Culture supernatants were then collected to analyzed for the presence of pro-inflammatory cytokines: […], interleukin 6 (IL-6) and tumor necrosis factor α (TNF-α).
Cytokine quantification in cell culture supernatants was accomplished by HTRF kits to assess levels of IL-1β (Human IL-1β kit, #62HIL1BPEG, Cisbio) and IL-6 (Human IL-6 kit, 62HIL06PET, Cisbio), and by ELISA to determine the levels of TNF-α (Human TNF-α ELISA kit, KHC3011, ThermoFisher).
Data analysis was performed via 1-way ANOVA with Tukey post-test compared to LPS treatment cultures using Prism statistical software (GraphPad). Tabular data indicates significance of reduction in culture supernatants for the indicated analyte at the indicated doses.

[2] = tested on: MRC-5 cells; test: TGFβ-stimulated αSMA expression in MRC-5 cells (HTRF); type: cell-based; set-up: key to Significant reduction in αSMA via HTRF compared to TGFβ alone: NS = no statistically significant change in aSMA expression; + = p < 0.05; ++ = p < 0.01; +++ = p < 0.005; ++++ = p < 0.001; settings: for Significant reduction in αSMA via HTRF compared to TGFβ alone: TGFβ 1 ng/ml, 48 h
Experimental: In this study, pulmonary-derived immortalized fibroblasts, MRC-5 cells, were cultured as a model of the early transition to fibrosis, and αSMA expression was measured using an immunodetection system driven by homogenous time-resolved fluorescence (HTRF) technology. This detection system produces a fluorescent signal in the presence of αSMA in cell lysates. Cells were grown to confluence in 96-well culture plates in complete media, and then transitioned to serum-free media for 2 hours. Next TGFβ (final 1 ng/ml in serum-free media) was added to the cells to stimulate the fibrotic transition. After 2 hours, media containing either HGF or HGF combined with one of the compounds was added to the cells. After incubation for 48 hours, cells were lysed and processed for αSMA HTRF to detect the levels of αSMA expression and compared to TGFβ-stimulated cultures. Statistical analysis consisted of 1-way ANOVA with a Dunnett's multiple comparison's post-test.

[3] = tested on: pulmonary LPS-stimulated rats; test: Immune cell infiltration in BALF, LPS-induced acute pulmonary inflammation; type: in vivo; settings: 3 mg/kg IP 1 h before LPS; BALF 4 h post LPS
[4] = tested on: pulmonary LPS-stimulated rats; test: Cytokine expression in BALF supernatant (multiplex immunoassay), LPS-induced acute pulmonary inflammation; type: in vivo; settings: 3 mg/kg IP 1 h before LPS
[5] = tested on: C57BL/6 mice, bleomycin-induced pulmonary fibrosis; test: Bleomycin-induced pulmonary fibrosis in mice; type: in vivo; set-up: key to Collagen, improvement in BLM-induced alterations versus disease control / Alpha-Smooth Muscle Actin, improvement in BLM-induced alterations versus disease control / Body Weight, improvement in BLM-induced alterations versus disease control / Right Lung Weight, improvement in BLM-induced alterations versus disease control / Hydroxyproline, improvement in BLM-induced alterations versus disease control: + = >5-25% improvement vs disease control; ++ = >26-50% improvement vs disease control; +++ = >51-100% improvement v disease control; NS means not significant
Experimental: Lung fibrosis in C57BL/6 mice is induced by a single […] injection of the chemotherapy drug bleomycin. Mice are treated with vehicle or test compound. At termination (study day 28), one lung is weighed, with increased weight indicating more advanced fibrosis. Lung tissue is also homogenized for hydroxyproline, collagen, and TGF-β quantification. Lung tissue is also formalin-fixed and further processed for H&E, collagen morphometry, Ashcroft's score, and both α-SMA and TUNEL expression analyses. Plasma is analyzed by multiplex bead array for MMP-2, MMP-9, IL-1β, IL-6, IL-12, and TNF-α expression.
The experimental design described in Example B1 with the following changes was used to assess the ability of Compound 1a to reduce pulmonary fibrosis. Briefly, Male C57BL/6 mice (Envigo) […] were used. The mice were 3.5-4 months old and ˜24-30 g by weight. On day −1 animals were randomized based on body weight and the animals were assigned with a permanent number by ear notching. Cages were identified by cage cards indicating the study code, group number, sex, dose, cage number, number of animals and animal number details.
On day 0, all animals (except the sham control animals) were administered bleomycin (0.03 U in 50 μl normal saline) intratracheally (i.t.) under Ketamine+Xylazine anesthesia. The sham control animals were dosed with 50 μl of normal saline intratracheally. Pirfenidone was used as a positive control; this compound is known to downregulate growth factors and procollagens to reduce fibrosis and is an approved drug for the treatment of idiopathic pulmonary fibrosis.
Vehicle, pirfenidone and test Compound 1a dosing was initiated from day 3 to day 21 as described in the following Table 2. On day 21 whole blood was collected 1-hour post-dose into EDTA and then processed to plasma. Right lungs were then collected, weighed, snap frozen and later homogenized for biochemical analysis. Hydroxyproline, collagen and TGF-Beta levels were measured in the right lung homogenates.

[6] = tested on: BALB/c mice, CCl4 mouse model of liver fibrosis; test: CCl4-induced liver fibrosis, plasma AST; type: in vivo
Experimental: Liver fibrosis in BALB/c mice was induced by biweekly intraperitoneal injections of carbon tetrachloride (CCl4) from study day 0 to 43. Mice were treated with vehicle, Compound 1a, or positive control, SB535334, beginning at study day 21. At termination (study day 43), plasma was tested for liver function via levels of aspartate aminotransferase (AST).
AST can be used as a marker of liver damage, because increased levels are released in the blood stream in chronic liver disease.

[7] = dose 100 mg/kg PO twice daily, right lung homogenate, day 21

## CCCCCC(=O)N[C@@H](Cc1ccc(O)cc1)C(=O)N[C@H](C(=O)NCCCCCC(N)=O)[C@@H](C)CC [Compound A19-AM, Dihexa] (Hexanoyl-Tyr-Ile-[Ahx]-NH2)
[1]; 0.1 nM
  IL-1β, significant reduction in culture supernatant vs LPS treatment: NS
  IL-6, significant reduction in culture supernatant vs LPS treatment: NS
  TNF-α, significant reduction in culture supernatant vs LPS treatment: NS
[1]; 10 nM
  IL-1β, significant reduction in culture supernatant vs LPS treatment: ++ (“++” indicates a p value <0.01 in Tukey post test)
  IL-6, significant reduction in culture supernatant vs LPS treatment: + (“+” indicates a p value <0.05 in Tukey post test)
  TNF-α, significant reduction in culture supernatant vs LPS treatment: + (“+” indicates a p value <0.05 in Tukey post test)
[1]; 1000 nM
  IL-1β, significant reduction in culture supernatant vs LPS treatment: + (“+” indicates a p value <0.05 in Tukey post test)
  IL-6, significant reduction in culture supernatant vs LPS treatment: ++ (“++” indicates a p value <0.01 in Tukey post test)
  TNF-α, significant reduction in culture supernatant vs LPS treatment: + (“+” indicates a p value <0.05 in Tukey post test)
[1]; at at least one tested dose
  expression of IL-1β and TNF-α: significantly reduced
  expression of IL-6: significantly reduced
[2]; 1 uM, combined with 0.01 ng/ml HGF
  αSMA expression: significantly reduced αSMA
[2]; test compound 1 nM, HGF 0.01 ng/ml
  Significant reduction in αSMA via HTRF compared to TGFβ alone: NS
[2]; test compound 1 μM, HGF 0.01 ng/ml
  Significant reduction in αSMA via HTRF compared to TGFβ alone: ++++ (++++ = p < 0.001)

## C[C@@H]1C[C@H]2[C@@H]3CCC4=CC(=O)C=C[C@]4(C)[C@@]3(F)[C@@H](O)C[C@]2(C)[C@@]1(O)C(=O)CO [Dex, Dexamethasone, reference compound]
[3]
  Neutrophils in BALF, reduction in cell count vs disease control: +++ (+++ = >75% reduction in cell count vs disease control)
  Total Leukocytes in BALF, reduction in cell count vs disease control: +++ (+++ = >75% reduction in cell count vs disease control)
[4]
  CCL2, significant change in cytokine expression in BALF supernatant: + (+ = Significant change in cytokine quantification, p < 0.05 by Student's T-test)
  CCL3, significant change in cytokine expression in BALF supernatant: + (+ = Significant change in cytokine quantification, p < 0.05 by Student's T-test)
  CCL5, significant change in cytokine expression in BALF supernatant: + (+ = Significant change in cytokine quantification, p < 0.05 by Student's T-test)
  CCL11, significant change in cytokine expression in BALF supernatant: + (+ = Significant change in cytokine quantification, p < 0.05 by Student's T-test)
  CX3CL1, significant change in cytokine expression in BALF supernatant: + (+ = Significant change in cytokine quantification, p < 0.05 by Student's T-test)
  CXCL1, significant change in cytokine expression in BALF supernatant: + (+ = Significant change in cytokine quantification, p < 0.05 by Student's T-test)
  CXCL5, significant change in cytokine expression in BALF supernatant: + (+ = Significant change in cytokine quantification, p < 0.05 by Student's T-test)
  CXCL10, significant change in cytokine expression in BALF supernatant: + (+ = Significant change in cytokine quantification, p < 0.05 by Student's T-test)
  EGF, significant change in cytokine expression in BALF supernatant: + (+ = Significant change in cytokine quantification, p < 0.05 by Student's T-test)
  IFN-γ, significant change in cytokine expression in BALF supernatant: + (+ = Significant change in cytokine quantification, p < 0.05 by Student's T-test)
  IL-1α, significant change in cytokine expression in BALF supernatant: + (+ = Significant change in cytokine quantification, p < 0.05 by Student's T-test)
  IL-1β, significant change in cytokine expression in BALF supernatant: + (+ = Significant change in cytokine quantification, p < 0.05 by Student's T-test)
  IL-5, significant change in cytokine expression in BALF supernatant: + (+ = Significant change in cytokine quantification, p < 0.05 by Student's T-test)
  IL-6, significant change in cytokine expression in BALF supernatant: + (+ = Significant change in cytokine quantification, p < 0.05 by Student's T-test)
  IL-10, significant change in cytokine expression in BALF supernatant: + (+ = Significant change in cytokine quantification, p < 0.05 by Student's T-test)
  IL-12p70, significant change in cytokine expression in BALF supernatant: + (+ = Significant change in cytokine quantification, p < 0.05 by Student's T-test)
  IL-13, significant change in cytokine expression in BALF supernatant: + (+ = Significant change in cytokine quantification, p < 0.05 by Student's T-test)
  IL-17A, significant change in cytokine expression in BALF supernatant: + (+ = Significant change in cytokine quantification, p < 0.05 by Student's T-test)
  TNF-α, significant change in cytokine expression in BALF supernatant: + (+ = Significant change in cytokine quantification, p < 0.05 by Student's T-test)

## Cc1ccc(=O)n(-c2ccccc2)c1 [Pirfenidone, reference compound]
[5]; all doses, day 21
  bleomycin-induced increases in TGF-β in right lung homogenates: significantly protected against bleomycin-induced increases in TGF-β
[5]; all treatment groups, over the study period
  protection against bleomycin-induced body weight loss: did not protect against body weight loss
[5]; dose 100 mg/kg PO twice daily, days 3-21
  Body Weight, improvement in BLM-induced alterations versus disease control: NS
[5]; dose 100 mg/kg PO twice daily, days 3-21, day 21
  Right Lung Weight, improvement in BLM-induced alterations versus disease control: + (+ = >5-25% improvement vs disease control)
[5]; dose 100 mg/kg PO twice daily, day 21
  Alpha-Smooth Muscle Actin, improvement in BLM-induced alterations versus disease control: + (+ = >5-25% improvement vs disease control)
[5]; [7]
  Collagen, improvement in BLM-induced alterations versus disease control: ++ (++ = >26-50% improvement vs disease control)
  Hydroxyproline, improvement in BLM-induced alterations versus disease control: NS
  TGF-Beta, improvement in BLM-induced alterations versus disease control: +++ (+++ = >51-100% improvement v disease control)
[5]; other doses of Compound 1a, pirfenidone doses, day 21
  alpha-smooth muscle actin morphometory: insignificant decreases

## Cc1cccc(-c2[nH]c(C(C)(C)C)nc2-c2ccc3nccnc3c2)n1 [SB525334, reference compound]
[6]; Dose 30, from study day 21, termination day 43
  AST in plasma, improvement compared to disease control: − (− = change of <5% compared to disease control)
[6]; positive control
  AST levels in plasma compared to CCl4-treated mice receiving vehicle: significant increases

## HGF: Hepatocyte growth factor protein, added alone or with test compounds
[2]; HGF 0.01 ng/ml alone
  Significant reduction in αSMA via HTRF compared to TGFβ alone: NS
[2]; HGF 1 ng/ml alone
  Significant reduction in αSMA via HTRF compared to TGFβ alone: NS
[2]; HGF 10 ng/ml alone
  Significant reduction in αSMA via HTRF compared to TGFβ alone: +++ (+++ = p < 0.005)
[2]; TGFβ-stimulated MRC-5 cells
  αSMA expression, HGF alone: significantly reduce αSMA expression at high (10 ng/ml) but not low (0.01 or 1 ng/ml) concentrations
